Where two headings read alike, the source gives them in different places. Bridge positions count the residues as written; N and C are the ends. Square brackets hold non-standard residues; d marks the D form. Peptide text beside a SMILES is read from it. 2Nal = N[C@@H](Cc1ccc2ccccc2c1)C(=O)O; Cit = NC(=O)NCCC[C@H](N)C(=O)O
Tests used:
[1] = target: CXCR4 (Homo sapiens, UniProt P61073); test: Competition assays: test compounds binding to CXCR4 compared to SDF-1 (Table 2)
[2] = Half life of the compounds in mice; assay type: in vivo; settings: for half-life: mouse, in vivo, read-out: t½ (min) in mice
Description: A pharmacokinetic study of a novel anti-HIF-1α small molecule was performed. A stably integrated hypoxia-reporter system of glioma cells transfected with the hypoxia-reporting plasmid (described above) was utilized. A natural product-like small molecule library of 10,000 compounds was screened and the “best hit” was identified. HPLC methodology was developed for quantitatively detecting KCN-1 in plasma and other biological samples. For the pharmacokinetic study, KCN-1 (100 mg/kg) was dissolved in DMSO and administered intravenously to mice. Plasma samples were collected at given time Points (0.25, 0.5, 1, 2, 4 and 8 h) and KCN-1 levels were quantified by HPLC. The HPLC system consisted of a Varian Prostar gradient pump, a Prostar autosampler and a Prostar photo diode array detector. The column was a Luna 5μ C18 column (4.6 mm×250 mm, Phenomenex). The retention time of KCN1 and the internal standard were 8.7 and 17.7 min, respectively (FIG. 13). The in vivo stability of WZZL811S and WZ40 were measured after systemic administration of compounds over two hours (FIG. 17).
The half life of the compounds in mice where determined are also shown.

[3] = system: CXCR4 protein levels; test: CXCR4 protein levels in treated cells; assay type: cell-based, human
Excerpt: (§1) CXCR4/SDF-1 interaction activates PI3K/Akt and Ras/Raf/MEK/Erk pathways in a Gαi protein (PTX-sensitive)-dependent manner.

[4] = system: MT-4 cells; settings: cited from earlier work
[5] = system: human umbilical vein endothelial cells (HUVECs); test: Endothelial capillary tube formation assay; assay type: cell-based; settings: 100 nM, SDF-1 100 ng/ml, 18 hours
Description: The anti-angiogenic effect of test compounds was measured by analyzing endothelial cell growth and tube formation. The angiogenic effect of SDF-1 (100 ng/ml) on capillary formation by human umbilical vein endothelial cells (HUVECs) was examined in vitro using Matrigel-coated 24-well plates precoated with Matrigel and incubated for 18 hours. The angiogenic effect of SDF-1 was inhibited by either 100 nM TN14003 (peptide-based CXCR4 antagonist) or WZZL811S treatment (FIG. 14a, graph FIG. 14b).

[6] = system: Erk1/2 phosphorylation; test: SDF-1-stimulated Erk1/2 phosphorylation; assay type: cell-based, human; settings: data not shown
Excerpt: as §1

[7] = system: HIV; settings: MT-4 cells; read-out: concentration required for 50% protection of HIV-induced cytopathogenicity; cited from earlier work
[8] = system: CXCR4/SDF-1 mediated invasion of MDA-MB-231; test: Matrigel invasion assay, CXCR4/SDF-1-mediated invasion; assay type: cell-based, human; settings: MDA-MB-231, 2 nM
Description: FIG. 10 is a graph and representative blot of matrigel invasion and Akt phosphorylation in cells. A: Inhibition of CXCR4/SDF-1 mediated invasion of MDA-MB-231 in vitro by WZZL811S. CXCR4/SDF-1 mediated invasion of MDA-MB-231 was blocked either by 2 nM of TN14003 or WZZL811S. B: Incubating MDA-MB-231 cells with 100 ng/ml of SDF-1 for 30 min stimulated phosphorylation of Akt that blocked by WZZL811S in a dose-dependent manner
Lowering CXCR4 mRNA levels by siRNAs inhibited CXCR4/SDF-1-mediated invasion as measured by a matrigel invasion assay. The CXCR4 ligand, SDF-1 (400 ng/ml) was added to the lower chamber to attract CXCR4-positive breast cancer cells to migrate through the matrigel. The invasion of MDA-MB-231 cells transfected with siRNA1 decreased to 39±4% of the control cells, 51±8% with siRNA2, and only 16±6% with both siRNA1+2 (FIG. 3A).
WZZL811S was tested in a matrigel invasion assay to determine whether it can inhibit CXCR4/SDF-1-mediated invasion.

[9] = system: phosphorylation of Akt; test: SDF-1-stimulated phosphorylation of Akt (western blot); assay type: cell-based, human
Excerpt: FIG. 2 is an image of a western blot showing phosphorylation of Akt.
FIG. 10 is a graph and representative blot of matrigel invasion and Akt phosphorylation in cells.
as §1

[10] = system: metastatic 686LN cells; test: Head & Neck cancer metastasis model, 686LN cells injected through the tail vein, FDG-PET; assay type: in vivo, mice; settings: 20 mg/mouse/twice weekly, thirty days
Description: The metastatic 686LN cells were injected intravenously through the tail vein to generate experimental animal models for Head & Neck cancer metastasis, modulated via CXCR4. […] These 3-D projection images show lung metastases well (bone mets and liver mets were apparent in axial section images of mice in control groups, data not shown).

[11] = system: SHIV; test: SHIV infection, p27 antigen capture; assay type: cell-based; settings: 0.1, 1, 10 or 100 nM drug prior to infection; 2 to 5 days
Description: The effect of the test compounds on HIV infection in model cells was analyzed by p27 antigen capture using SHIV infected cells. Cells were incubated with 0, 0.1, 1, 10 or 100 nM drug prior to infection with SHIV. Viral titer was measured after infection by analyzing levels of p27 antigen. […] The inhibition was measurable at 2 days, and continued to 5 day incubations.

[12] = competition with SDF-1 for binding to CXCR4, read-out: IC50 (nM) vs SDF-1

Sequence of CXCR4 (P61073 whole entry): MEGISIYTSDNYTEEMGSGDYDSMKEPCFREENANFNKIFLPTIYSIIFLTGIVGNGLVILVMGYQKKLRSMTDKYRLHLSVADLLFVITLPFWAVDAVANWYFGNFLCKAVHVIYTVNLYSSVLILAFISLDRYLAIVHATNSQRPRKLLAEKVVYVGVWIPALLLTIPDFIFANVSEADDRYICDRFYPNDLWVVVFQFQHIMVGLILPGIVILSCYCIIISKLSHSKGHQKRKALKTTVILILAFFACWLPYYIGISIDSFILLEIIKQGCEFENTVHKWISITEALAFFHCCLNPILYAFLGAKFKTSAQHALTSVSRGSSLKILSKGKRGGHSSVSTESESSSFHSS

Row | Compound | IC50 [1, 12] [nM] | other results
1 | Fc1ccc(NCc2ccc(CNc3ccc(F)cc3)cc2)cc1 [MSX-142] | > 1000 | 
2 | c1ccc(NCCc2ccc(CCNc3ccccc3)cc2)cc1 [MSX-170] | > 100 | 
3 | c1cc(CNCc2ccc(CNCc3ccncc3)cc2)ccn1 [MSX-159s] | > 1000 | 
4 | COc1ccc(NCc2ccc(CNc3ccc(OC)cc3)cc2)cc1 [MSX-125] | > 10 | 
5 | c1ccc(NCc2c3ccccc3c(CNc3ccccc3)c3ccccc23)cc1 [MSX-174] | > 100 | 
6 | c1cc(CNC2=NCCN2)ccc1CNC1=NCCN1 [MSX-133] | > 1000 | 
7 | O=[N+]([O-])c1ccccc1NCc1ccc(CO)cc1 [MSX-202] | 1 | half-life [2]: < 5 min
8 | Clc1nc(Cl)nc(NCc2ccc(CNc3nc(Cl)nc(Cl)n3)cc2)n1 [MSX-190] |  | half-life [2]: < 5 min
9 | FCc1ccc(CNc2ncccn2)cc1 [MSX-207] | 1 | half-life [2]: 11 min
10 | FC(F)(F)c1cccc(NCc2ccc(CNc3cccc(C(F)(F)F)c3)cc2)c1 [MSX-138] | > 1000 | 
11 | [O-][n+]1cccnc1NCc1ccc(CNc2nccc[n+]2[O-])cc1 [MSX-189] | > 1000 | 
12 | Fc1cccc(NCc2ccc(CNc3cccc(F)c3)cc2)c1 [MSX-184] | > 100 | 
13 | c1ccc(-c2nc(-c3ccc(-c4nc(-c5ccccc5)c(-c5ccccc5)[nH]4)cc3)[nH]c2-c2ccccc2)cc1 [MSX-130] | > 1000 | 
14 | c1ccc(OCc2ccc(COc3ccccn3)cc2)nc1 [MSX-213] | > 1000 | 
15 | Cc1c(C)c(CNc2ccccc2)c(C)c(C)c1CNc1ccccc1 [MSX-172] |  | half-life [2]: < 5 min
16 | OCc1ccc(CNc2ccc(F)cn2)cc1 [MSX-186] | > 1000 | 
17 | CN(Cc1ccc(CN(C)c2ccccc2)cc1)c1ccccc1 [MSX-164] | > 100 | 
18 | CN(C)Cc1ccc(CN(C)C)cc1 [MSX-141] | > 1000 | 
19 | TN14003 |  | effect on CXCR4 protein levels [3]: did not affect; concentration leading to 50% toxicity [4]: 410 µM; inhibition of the angiogenic effect of SDF-1 (tube formation) [5]: inhibited; concentration attenuating Erk1/2 phosphorylation [6]: sub-nano molar; EC50 [7]: 0.6 nM; blocking of SDF-1-induced matrigel invasion [8]: blocked; concentration blocking Akt activation ([9]; 100 ng/ml SDF-1 for 30 minutes): sub-nano molar; blocking of SDF-1-stimulated Akt phosphorylation (dose-dependent) ([9]; MDA-MB-231 cells, 100 ng/ml SDF-1 for 30 min): blocked; metastasis of 686LN cells to organs [10]: failed to metastasize to any organs
20 | c1ccc(NCCNCc2ccc(CNCCNc3ccccc3)cc2)cc1 [MSX-158] | > 1000 | 
21 | N=C(N)NCc1ccc(CNC(=N)N)cc1 [WZ5S] |  | melting point: 278 to 281 °C (dec.)
22 | c1ccc(NCc2ccccc2CNc2ccccc2)cc1 [MSX-176] | > 100 | 
23 | O=[N+]([O-])c1ccc(NCc2ccc(CNc3ccc([N+](=O)[O-])cc3)cc2)cc1 [MSX-178] |  | IC50 [1]: > 1000 nM
24 | Fc1nccc(NCc2ccc(CNc3ccnc(F)n3)cc2)n1 [MSX-193] | 1 | half-life [2]: 30 min
25 | c1ccc(NCc2cc(CNc3ccccc3)cc(CNc3ccccc3)c2)cc1 [MSX-166] | > 1000 | 

Row | Compound | IC50 [1, 12] [nM] | other results
26 | COc1nc(NCc2ccc(CNc3ncc(F)c(OC)n3)cc2)ncc1F [MSX-201] | 1 | 
27 | COc1cccc(NC(=O)c2ccc(C(=O)Nc3cccc(OC)c3)cc2)c1 [MSX-137] | > 1000 | 
28 | Fc1ccc(NCc2ccc(CNc3ncccn3)cc2)nc1 [MSX-197] | 1 | half-life [2]: 16.5 min
29 | Oc1cc(CN2CCOCC2)c(O)cc1CN1CCOCC1 [MSX-127] | > 1000 | 
30 | Oc1ccc(NCc2ccc(CNc3ccc(O)cc3)cc2)cc1 [MSX-179] | > 1000 | 
31 | CN(C)CCNCc1ccc(CNCCN(C)C)cc1 [MSX-156s] | > 1000 | 
32 | N=C(N)NCCC[C@H](NC(=O)[C@@H]1CSSC[C@H](NC(=O)[C@H](Cc2ccc3ccccc3c2)NC(=O)[C@H](CCCNC(=N)N)NC(=O)[C@@H](N)CCCNC(=N)N)C(=O)N[C@@H](Cc2ccc(O)cc2)C(=O)N[C@@H](CCCNC(N)=O)C(=O)N[C@@H](CCCCN)C(=O)N[C@H](CCCCN)C(=O)N2CCC[C@H]2C(=O)N[C@@H](Cc2ccc(O)cc2)C(=O)N[C@@H](CCCNC(=N)N)C(=O)N[C@@H](CCCNC(N)=O)C(=O)N1)C(N)=O [TN-14003, reference compound] (H-RR[2Nal]CY[Cit]K[dK]PYR[Cit]CR-NH2; disulfide 4-13 (inferred); N-terminus assumed) | < 1 | 
33 | Clc1cccc(NCc2ccc(CNc3ncccn3)cc2)n1 [MSX-221] | 1 | 
34 | c1ccc(NCCNCc2ccc(CNCCNc3ccccc3)cc2)cc1 [WZ8] |  | melting point: 42 to 43 °C
35 | OCc1ccc(CNc2ncccn2)cc1 [WZ41] |  | inhibition of SHIV infection (p27 antigen) [11]: inhibited SHIV infection at all concentrations tested
36 | Fc1cccc(NCc2ccc(CNc3ncccn3)cc2)n1 [MSX-222] |  | half-life [2]: 15 min
37 | c1ccc(NCc2ccc(CNc3ccccc3)cc2)cc1 [WZ13] |  | melting point: 126 to 127 °C
38 | Fc1cnc(NCc2ccc(CNc3ncc(F)c(Cl)n3)cc2)nc1Cl [MSX-192] | 1 | 
39 | c1ccc(NCc2ccc(CNc3ncccn3)cc2)nc1 [MSX-198] | < 100 | 
40 | c1cncc(CNCc2ccc(CNCc3cccnc3)cc2)c1 [MSX-160] | > 1000 | 
41 | c1ccc(NC[C@H]2CC[C@@H](CNc3ccccc3)CC2)cc1 [MSX-171] | > 1000 | 
42 | O=[N+]([O-])c1cccc(NCc2ccc(CNc3cccc([N+](=O)[O-])c3)cc2)c1 [MSX-203] |  | t½ (min) in mice [2]: infinite; IC50 [1]: 1 nM
43 | c1cnc(NCc2ccc(CNc3ncccn3)cc2)nc1 [WZ40] |  | inhibition of SHIV infection (p27 antigen) [11]: inhibited SHIV infection at all concentrations tested
44 | O=C(Nc1ccccc1)c1cc(CNc2ccccc2)cc(CNc2ccccc2)c1 [MSX-167] | > 100 | 
45 | O=C(Nc1ccccc1)c1cc(C(=O)Nc2ccccc2)cc(C(=O)Nc2ccccc2)c1 [WZ20] |  | melting point: 318 to 320 °C
46 | Cc1cc(CN)c(C)cc1CN [MSX-126] | > 1000 | 
47 | Fc1ccc(NCc2ccc(CNc3ccc(F)cn3)cc2)nc1 [MSX-185] | < 100 | 
48 | N#Cc1ccc(NCc2ccc(CNc3ccc(C#N)cc3)cc2)cc1 [MSX-177] | > 1000 | 
49 | c1ccc(CNCc2ccc(CNCc3ccccn3)cc2)nc1 [MSX-161s] | > 1000 | 

From patent US20160002174A1, “CXCR4 Antagonists for the Treatment of Medical Disorders” (Emory University, priority 2005, published 2016)
